Source: US20190119251A1, “AMIDE-SUBSTITUTED ARYLTRIAZOLE DERIVATIVES AND USES THEREOF” (BAYER PHARMA AKTIENGESELLSCHAFT, priority 2016, published 2019)

Assays:
[1] = target: T1, human V1a receptor (Homo sapiens, UniProt P37288); test: Cellular in vitro assay for determining vasopressin receptor activity (V1a cell line, aequorin luminescence); assay type: cell-based; conditions: for IC50: CHO cell line transfected with the human V1a receptor, agonist [Arg8]-vasopressin at EC50 concentration, read-out: IC50 hV1a; for ratio IC50 hV2/hV1a: ratio of cellular IC50 values, human V2 over human V1a
T1 construct: expressed in transfected cells; host or cells: CHO K1 (Chinese hamster ovary), also stably transfected with modified aequorin
T1 sequence (P37288 whole entry): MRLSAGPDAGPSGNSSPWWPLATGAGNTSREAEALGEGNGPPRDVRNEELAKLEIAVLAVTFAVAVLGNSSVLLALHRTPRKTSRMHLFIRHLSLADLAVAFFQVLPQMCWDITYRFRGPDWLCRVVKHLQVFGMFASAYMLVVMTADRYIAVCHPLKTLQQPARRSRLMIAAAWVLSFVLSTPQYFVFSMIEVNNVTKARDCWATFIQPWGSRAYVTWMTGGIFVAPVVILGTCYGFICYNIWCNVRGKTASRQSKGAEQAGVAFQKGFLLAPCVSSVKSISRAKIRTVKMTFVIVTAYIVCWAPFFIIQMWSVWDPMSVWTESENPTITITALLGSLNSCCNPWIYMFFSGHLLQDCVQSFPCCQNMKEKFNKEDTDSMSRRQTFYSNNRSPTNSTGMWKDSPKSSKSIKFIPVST
Method: (§1) B-1. Cellular In Vitro Assay for Determining Vasopressin Receptor Activity
(§2) The identification of agonists and antagonists of the V 1 a and V2 vasopressin receptors from humans, rats and dogs as well as the quantification of the activity of the compounds of the invention is carried out using recombinant cell lines. These cell lines originally derive from a hamster's ovary epithelial cell (Chinese Hamster Ovary, CHO K1, ATCC: American Type Culture Collection, Manassas, Va. 20108, USA). The test cell lines constitutively express the human, rat or dog
(§3) V1 a or V2 receptors. In case of the Gag-coupled V 1 a receptors, cells are also stably transfected with a modified form of the calcium-sensitive photoproteins aequorin (human and rat V1a) or obelin (dog V 1 a), which, after reconstitution with the cofactor coelenterazine, emit light when there are increases in free calcium concentrations [Rizzuto R, Simpson A W, Brini M, Pozzan T, Nature 358, 325-327 (1992); Illarionov B A, Bondar V S, Illarionova V A, Vysotski E S, Gene 153 (2), 273-274 (1995)]. The resulting vasopressin receptor cells react to stimulation of the recombinantly expressed V 1 a receptors by intracellular release of calcium ions, which can be quantified by the resulting photoprotein luminescence. The Gs-coupled V2 receptors are stably transfected into cell lines expressing the gene for firefly luciferase under control of a CRE-responsible promoter. Activation of V2 receptors induces the activation of the CRE-responsive promoter via cAMP increase, thereby inducing the expression of firefly luciferase. The light emitted by photoproteins of V1a cell lines as well as the light emitted by firefly luciferase of V2 cell lines corresponds to the activation or inhibition of the respective vasopressin receptor. The bioluminescence of the cell lines is detected using a suitable luminometer [Milligan G, Marshall F, Rees S, Trends in Pharmacological Sciences 17, 235-237 (1996)].
Vasopressin V1a Receptor Cell Lines:
On the day before the assay, the cells are plated out in culture medium (DMEM/F12, 2% FCS, 2 mM glutamine, 10 mM HEPES, 5 μg/ml coelenterazine) in 384-well microtiter plates and kept in a cell incubator (96% humidity, 5% v/v CO2, 37° C.). On the day of the assay, test compounds in various concentrations are placed for 10 minutes in the wells of the microtiter plate before the agonist [Arg^8]-vasopressin at EC50 concentration is added. The resulting light signal is measured immediately in a luminometer.
(§4) Table 1A below lists individual IC50 values for the compounds of the invention (including racemic mixtures as well as separated enantiomers) that were obtained from cell lines transfected with the human V1a or V2 receptor: […]

[2] = target: T2, human V2 receptor (Homo sapiens, UniProt P30518); test: Cellular in vitro assay for determining vasopressin receptor activity (V2 cell line, CRE-luciferase); assay type: cell-based; conditions: CHO cell line transfected with the human V2 receptor; agonist [Arg8]-vasopressin at EC50 concentration; 3 hours incubation; read-out: IC50 hV2
T2 construct: expressed in transfected cells; host or cells: CHO K1 (Chinese hamster ovary) expressing firefly luciferase under a CRE-responsive promoter
T2 sequence (P30518 whole entry): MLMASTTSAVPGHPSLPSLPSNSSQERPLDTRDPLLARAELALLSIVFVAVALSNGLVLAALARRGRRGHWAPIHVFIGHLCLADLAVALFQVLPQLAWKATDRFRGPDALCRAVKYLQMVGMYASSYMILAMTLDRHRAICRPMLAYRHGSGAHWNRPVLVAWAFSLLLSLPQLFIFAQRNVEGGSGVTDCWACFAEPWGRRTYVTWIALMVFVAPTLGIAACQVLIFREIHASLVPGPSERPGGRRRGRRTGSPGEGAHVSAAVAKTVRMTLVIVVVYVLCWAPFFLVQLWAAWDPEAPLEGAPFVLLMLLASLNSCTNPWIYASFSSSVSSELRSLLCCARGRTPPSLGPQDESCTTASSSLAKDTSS
Method: as §1, §2, §3
Vasopressin V2 Receptor Cell Lines:
On the day before the assay, the cells are plated out in culture medium (DMEM/F12, 2% FCS, 2 mM glutamine, 10 mM HEPES) in 384-well microtiter plates and kept in a cell incubator (96% humidity, 5% v/v CO2, 37° C.). On the day of the assay, test compounds in various concentrations and the agonist [Arg^8]-vasopressin at EC50 concentration are added together to the wells, and plates are incubated for 3 hours in a cell incubator. Upon addition of the cell lysis reagent Triton™ and the substrate luciferin, luminescence of firefly luciferase is measured in a luminometer.
as §4

SMILES	IC50 [1]	ratio IC50 hV2/hV1a [1]	IC50 [2]
CC(C)c1ccccc1-n1nc(Cn2nc(-c3ccc(Cl)cc3)n(C[C@H](O)C(F)(F)F)c2=O)nc1C(N)=O [Example 28, 3-({3-(4-Chlorophenyl)-5-oxo-4-[(2S)-3,3,3-trifluoro-2-hydroxypropyl]-4,5-dihydro-1H-1,2,4-triazol-1-yl}methyl)-1-(2-isopropylphenyl)-1H-1,2,4-triazole-5-carboxamide]	4.85 nM	13.3	64.5 nM
Cc1cccnc1-n1nc(Cn2nc(-c3ccc(Cl)cc3)n(C[C@H](O)C(F)(F)F)c2=O)nc1C(N)=O [Example 2, 3-({3-(4-Chlorophenyl)-5-oxo-4-[(2S)-3,3,3-trifluoro-2-hydroxypropyl]-4,5-dihydro-1H-1,2,4-triazol-1-yl}methyl)-1-(3-methylpyridin-2-yl)-1H-1,2,4-triazole-5-carboxamide]	5.15 nM	4.5	23.2 nM
NC(=O)c1nc(Cn2nc(-c3ccc(Cl)cc3)n(CC(=O)C(F)(F)F)c2=O)nn1-c1ccccc1Cl [Example 37, 1-(2-Chlorophenyl)-3-{[3-(4-chlorophenyl)-5-oxo-4-(3,3,3-trifluoro-2-oxopropyl)-4,5-dihydro-1H-1,2,4-triazol-1-yl]methyll-1H-1,2,4-triazole-5-carboxamide (ketone form) or 1-(2-Chlorophenyl)-3-{[3-(4-Chlorophenyl)-5-oxo-4-(3,3,3-trifluoro-2,2-dihydroxypropyl)-4,5-dihydro-1H-1,2,4-triazol-1-yl]methyl}-1H-1,2,4-triazole-5-carboxamide (hydrate form)]	1.37 nM	9.9	13.5 nM
CSc1ccccc1-n1nc(Cn2nc(-c3ccc(Cl)cc3)n(C[C@H](O)C(F)(F)F)c2=O)nc1C(N)=O [Example 18, 3-({3-(4-Chlorophenyl)-5-oxo-4-[(2S)-3,3,3-trifluoro-2-hydroxypropyl]-4,5-dihydro-1H-1,2,4-triazol-1-yl}methyl)-1-[2-(methylsulfanyl)phenyl]-1H-1,2,4-triazole-5-carboxamide]	0.54 nM	3.1	1.65 nM
NC(=O)c1nc(Cn2nc(-c3ccc(Cl)cc3)n(C[C@H](O)C(F)(F)F)c2=O)nn1-c1ccccc1OC(F)F [Example 27, 3-({3-(4-Chlorophenyl)-5-oxo-4-[(2S)-3,3,3-trifluoro-2-hydroxypropyl]-4,5-dihydro-1H-1,2,4-triazol-1-yl}methyl)-1-[2-(difluoromethoxy)phenyl]-1H-1,2,4-triazole-5-carboxamide]	4.5 nM	9.3	41.7 nM
NC(=O)c1nc(Cn2nc(-c3ccc(Cl)cc3)n(C[C@H](O)C(F)(F)F)c2=O)nn1-c1ccccc1[N+](=O)[O-] [Example 24, 3-({3-(4-Chlorophenyl)-5-oxo-4-[(2S)-3,3,3-trifluoro-2-hydroxypropyl]-4,5-dihydro-1H-1,2,4-triazol-1-yl}methyl)-1-(2-nitrophenyl)-1H-1,2,4-triazole-5-carboxamide]	2.6 nM	11.7	30.5 nM
CCOc1ncccc1-n1nc(Cn2nc(-c3ccc(Cl)cc3)n(C[C@H](O)C(F)(F)F)c2=O)nc1C(N)=O [Example 13, 3-({3-(4-Chlorophenyl)-5-oxo-4-[(2S)-3,3,3-trifluoro-2-hydroxypropyl]-4,5-dihydro-1H-1,2,4-triazol-1-yl}methyl)-1-(2-ethoxypyridin-3-yl)-1H-1,2,4-triazole-5-carboxamide]	135 nM	3.9	525 nM
NC(=O)c1nc(Cn2nc(-c3ccc(Cl)cc3)n(C[C@H](O)C(F)(F)F)c2=O)nn1-c1ncccc1F [Example 5, 3-({3-(4-Chlorophenyl)-5-oxo-4-[(2S)-3,3,3-trifluoro-2-hydroxypropyl]-4,5-dihydro-1H-1,2,4-triazol-1-yl}methyl)-1-(3-fluoropyridin-2-yl)-1H-1,2,4-triazole-5-carboxamide]	17.5 nM	2.6	46 nM
